Consider one compound from patent US20150119244A1, “AGRICULTURAL USES OF HYTd” (Agrinos AS, priority 2011, published 2015).

The assay has as its system potatoes. Kind of assay: Potato trial in soil infested with fungi, test vs Metam-Sodium (Example 4).

From the text: Three hundred liters of Metam Sodium was applied per hectare.

The compound `CNC(=S)S` [Metam-Sodium] displayed a Kilos (potatoes of size 1st) of 0.32 Kilos; a Kilos (potatoes of size 4ta) of 3.63 Kilos; a Kilos (potatoes of size 2d) of 6.46 Kilos; a Kilos (potatoes of size 3d) of 2.67 Kilos; a Kilos (potatoes of size GIANT) of 0.43 Kilos; a Kilos (potatoes of size MONO) of 1.47 Kilos. This compound gave a Kilos (potatoes, TOTAL of all sizes) of 15.0 Kilos. For the same compound, the Pieces runs as follows: (potatoes of size 1st) 1; (potatoes of size 4ta) 88; (potatoes of size 2d) 35; (potatoes of size 3d) 24; (potatoes of size GIANT) 1; (potatoes of size MONO) 6. Besides, the Pieces (potatoes, TOTAL of all sizes) was found to be 155.
